Test results as given in patent US20120115845A1, “THERAPEUTIC AGENTS” (priority 2007, published 2012).

How the values were obtained:
[1] = target: T1, human GHS receptor (Homo sapiens, UniProt Q92847); test: h bind IC50 (binding assay, Table 1); details: for IC50: human receptor, Table 1
[2] = target: T1, human GHS receptor; test: Ghrelin IP1 agonist assay (IP1 HTRF); type: cell-based; set-up: expressed in transfected cells; host or cells: HEK293s; details: for Emax: 2 h, read-out: h IP1 ag %; for EC50: HEK293s cells stably expressing human GHS receptor, 2 hours at 37° C., read-out: h IP1 ag EC50
Protocol: In HEK293s cells stably expressing human GHS receptor (In-house), agonist activity was assessed by measuring intracellular myo-Inositol 1 phosphate (IP1) using the IP1 HTRF assay kit (Cisbio International).
Cells were harvested using accutase (Sigma), spun down at 1000 rpm for 5 minutes and resuspended in stimulation buffer (as above) containing 0.02% fatty acid free BSA at a density of 1.43E6cells/ml.
Agonist effect of the compound was expressed as % maximal effect of GHRP-6 (5 μM: Bachem). Sigmoidal curves were fitted by Origin 7.5 Client and EC50 values determined.

[3] = agonist effect as % maximal effect of GHRP-6 (5 μM)

T1 sequence (Q92847 whole entry): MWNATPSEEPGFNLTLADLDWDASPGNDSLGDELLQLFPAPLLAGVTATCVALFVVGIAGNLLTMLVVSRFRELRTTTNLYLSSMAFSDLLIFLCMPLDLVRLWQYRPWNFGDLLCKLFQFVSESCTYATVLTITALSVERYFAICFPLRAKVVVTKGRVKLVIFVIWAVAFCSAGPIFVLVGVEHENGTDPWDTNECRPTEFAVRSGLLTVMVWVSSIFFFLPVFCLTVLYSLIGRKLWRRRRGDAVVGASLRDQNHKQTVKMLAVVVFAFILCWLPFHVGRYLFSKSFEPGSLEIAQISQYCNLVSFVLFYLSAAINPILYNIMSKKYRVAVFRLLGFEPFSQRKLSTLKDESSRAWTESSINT

| Structure (SMILES) | IC50 [1] | also measured |
| --- | --- | --- |
| COc1cc(Cl)c(C(=O)NC(=O)Nc2nc3ccc(S(C)(=O)=O)cc3s2)cc1OC [2-chloro-4,5-dimethoxy-N-[(6-methylsulfonyl-1,3-benzothiazol-2-yl)carbamoyl]benzamide] |  | IC50 in the binding assay [1]: did not have IC50s in the range of about 0.001 μM to about 10 μM |
| CS(=O)(=O)c1ccc2nc(NC(=O)NC(=O)c3cc(F)ccc3Cl)sc2c1 [2-chloro-5-fluoro-N-[(6-methylsulfonylbenzothiazol-2-yl)carbamoyl]benzamide] |  | IC50 in the binding assay [1]: did not have IC50s in the range of about 0.001 μM to about 10 μM |
| CN(C)CCS(=O)(=O)c1ccc2nc(NC(=O)NC(=O)c3ccccc3Cl)sc2c1 [Example 3, 2-Chloro-N-[[6-(2-dimethylaminoethylsulfonyl)benzothiazol-2-yl]carbamoyl]benzamide] | 1120 nM |  |
| O=C(NC(=O)c1ccccc1Cl)Nc1nc2ccc(S(=O)(=O)CCN3CCC(O)C3)cc2s1 (stereo not drawn) [Example 5, 2-Chloro-N-[[6-[2-(3-hydroxypyrrolidin-1-yl)ethylsulfonyl]benzothiazol-2-yl]carbamoyl]benzamide] | 403 nM |  |
| O=C(NC(=O)c1ccccc1Cl)Nc1nc2ccc(S(=O)(=O)CCN3CCCC3)cc2s1 [Example 6, 2-Chloro-N-[[6-(2-pyrrolidin-1-ylethylsulfonyl)benzothiazol-2-yl]carbamoyl]benzamide] | 44.4 nM |  |
| CCN(CC)CCS(=O)(=O)c1ccc2nc(NC(=O)NC(=O)c3ccccc3Cl)sc2c1 [Example 7, 2-Chloro-N-[[6-(2-diethylaminoethylsulfonyl)benzothiazol-2-yl]carbamoyl]benzamide] | 670 nM |  |
| COCCN(C)CCS(=O)(=O)c1ccc2nc(NC(=O)NC(=O)c3ccccc3Cl)sc2c1 [Example 9, 2-Chloro-N-[[6-[2-(2-methoxyethyl-methyl-amino)ethylsulfonyl]benzothiazol-2-yl]carbamoyl]benzamide] | 247 nM |  |
| CN(CCO)CCS(=O)(=O)c1ccc2nc(NC(=O)NC(=O)c3ccccc3Cl)sc2c1 [Example 11, 2-Chloro-N-[[6-[2-(2-hydroxyethyl-methyl-amino)ethylsulfonyl]benzothiazol-2-yl]carbamoyl]benzamide] | 347 nM |  |
| CCC(C)NCCS(=O)(=O)c1ccc2nc(NC(=O)NC(=O)c3ccccc3Cl)sc2c1 (stereo not drawn) [Example 12, N-[[6-[2-(Butan-2-ylamino)ethylsulfonyl]benzothiazol-2-yl]carbamoyl]-2-chloro-benzamide] | 179 nM |  |
| CCN(CCOC)CCS(=O)(=O)c1ccc2nc(NC(=O)NC(=O)c3ccccc3Cl)sc2c1 [Example 15, 2-Chloro-N-[[6-[2-(ethyl-(2-methoxyethyl)amino)ethylsulfonyl]benzothiazol-2-yl]carbamoyl]benzamide] | 1080 nM |  |
| CC1CN(CCS(=O)(=O)c2ccc3nc(NC(=O)NC(=O)c4ccccc4Cl)sc3c2)CC(C)O1 (stereo not drawn) [Example 19, 2-Chloro-N-[[6-[2-(2,6-dimethylmorpholin-4-yl)ethylsulfonyl]benzothiazol-2-yl]carbamoyl]benzamide] | 1050 nM |  |
| CC(NCCS(=O)(=O)c1ccc2nc(NC(=O)NC(=O)c3ccccc3Cl)sc2c1)c1ccccc1 (stereo not drawn) [Example 20, 2-Chloro-N-[[6-[2-(1-phenylethylamino)ethylsulfonyl]benzothiazol-2-yl]carbamoyl]benzamide] | 184 nM |  |
| O=C(NC(=O)c1ccccc1Cl)Nc1nc2ccc(S(=O)(=O)CCNCC3CCCO3)cc2s1 (stereo not drawn) [Example 22, 2-Chloro-N-[[6-[2-(oxolan-2-ylmethylamino)ethylsulfonyl]benzothiazol-2-yl]carbamoyl]benzamide] | 184 nM |  |
| CN1CCN(CCS(=O)(=O)c2ccc3nc(NC(=O)NC(=O)c4ccccc4Cl)sc3c2)CC1 [Example 23, 2-Chloro-N-[[6-[2-(4-methylpiperazin-1-yl)ethylsulfonyl]benzothiazol-2-yl]carbamoyl]benzamide] | 82.7 nM |  |
| CCN1CCN(CCS(=O)(=O)c2ccc3nc(NC(=O)NC(=O)c4ccccc4Cl)sc3c2)CC1 [Example 29, 2-Chloro-N-[[6-[2-(4-ethylpiperazin-1-yl)ethylsulfonyl]benzothiazol-2-yl]carbamoyl]benzamide] | 60.9 nM |  |
| O=C(NC(=O)c1ccccc1Cl)Nc1nc2ccc(S(=O)(=O)CCNCCF)cc2s1 [Example 31, 2-Chloro-N-[[6-[2-(2-fluoroethylamino)ethylsulfonyl]benzothiazol-2-yl]carbamoyl]benzamide] | 54.6 nM |  |
| CC1(NCCS(=O)(=O)c2ccc3nc(NC(=O)NC(=O)c4ccccc4Cl)sc3c2)CC1 [Example 39, 2-Chloro-N-[[6-[2-[(1-methylcyclopropyl)amino]ethylsulfonyl]benzothiazol-2-yl]carbamoyl]benzamide] | 179 nM |  |
| COCCS(=O)(=O)c1ccc2nc(NC(=O)NC(=O)c3ccccc3Cl)sc2c1 [Example 40, 2-Chloro-N-[[6-(2-methoxyethylsulfonyl)benzothiazol-2-yl]carbamoyl]benzamide] | 1820 nM |  |

| Structure (SMILES) | IC50 [1] | also measured |
| --- | --- | --- |
| COCCOCCS(=O)(=O)c1ccc2nc(NC(=O)NC(=O)c3ccccc3Cl)sc2c1 [Example 42, 2-Chloro-N-[[6-[2-(2-methoxyethoxy)ethylsulfonyl]benzothiazol-2-yl]carbamoyl]benzamide] | 177 nM |  |
| O=C(NC(=O)c1cc(-n2cccc2)ccc1Cl)Nc1nc2ccc(S(=O)(=O)CCCN3CCC3)cc2s1 [Example 74, N-[[6-[3-(Azetidin-1-yl)propylsulfonyl]benzothiazol-2-yl]carbamoyl]-2-chloro-5-pyrrol-1-yl-benzamide] | 1 nM |  |
| CC(C)NCCCS(=O)(=O)c1ccc2nc(NC(=O)NC(=O)c3cc(-n4cccc4)ccc3Cl)sc2c1 [Example 75, 2-Chloro-N-[[6-[3-(propan-2-ylamino)propylsulfonyl]benzothiazol-2-yl]carbamoyl]-5-pyrrol-1-yl-benzamide] | 7.4 nM |  |
| COCCNCCCS(=O)(=O)c1ccc2nc(NC(=O)NC(=O)c3cc(-n4cccc4)ccc3Cl)sc2c1 [Example 76, 2-Chloro-N-[[6-[3-(2-methoxyethylamino)propylsulfonyl]benzothiazol-2-yl]carbamoyl]-5-pyrrol-1-yl-benzamide] | 11.4 nM |  |
| O=C(NC(=O)c1cc(-n2cccc2)ccc1Cl)Nc1nc2ccc(S(=O)(=O)CCN3CCC3)cc2s1 [Example 81, N-[[6-[2-(Azetidin-1-yl)ethylsulfonyl]benzothiazol-2-yl]carbamoyl]-2-chloro-5-pyrrol-1-yl-benzamide] | 2 nM |  |
| CC(C)NCCS(=O)(=O)c1ccc2nc(NC(=O)NC(=O)c3cc(-n4cccc4)ccc3Cl)sc2c1 [Example 82, 2-Chloro-N-[[6-[2-(propan-2-ylamino)ethylsulfonyl]benzothiazol-2-yl]carbamoyl]-5-pyrrol-1-yl-benzamide] | 1.6 nM |  |
| CC(C)NCCS(=O)(=O)c1ccc2nc(NC(=O)NC(=O)c3cc(-n4cccc4)ccc3I)sc2c1 [Example 84, 2-Iodo-N-(6-(2-(isopropylamino)ethylsulfonyl)benzothiazol-2-ylcarbamoyl)-5-(1H-pyrrol-1-yl)benzamide] | 7.1 nM |  |
| CS(=O)(=O)c1ccc2nc(NC(=O)NC(=O)c3c(F)cccc3F)sc2c1 [Example 112, 2,6-Difluoro-N-[(6-methylsulfonylbenzothiazol-2-yl)carbamoyl]benzamide] |  | Emax [2, 3]: 38.4%; EC50 [2]: 142 nM |
| NC(=O)COCCS(=O)(=O)c1ccc2nc(NC(=O)NC(=O)c3ccccc3Cl)sc2c1 [Example 120, N-[[6-[2-(Carbamoylmethoxy)ethylsulfonyl]benzothiazol-2-yl]carbamoyl]-2-chloro-benzamide] |  | Emax [2, 3]: 29.5%; EC50 [2]: 211 nM |
| O=C(NC(=O)c1ccccc1Cl)Nc1nc2ccc(S(=O)(=O)CCOCCO)cc2s1 [Example 121, 2-Chloro-N-[[6-[2-(2-hydroxyethoxy)ethylsulfonyl]benzothiazol-2-yl]carbamoyl]benzamide] | 400 nM |  |
| CS(=O)(=O)c1ccc2nc(NC(=O)NC(=O)c3ccccc3-c3ccccc3F)sc2c1 [Example 125, 2-(2-Fluorophenyl)-N-[(6-methylsulfonylbenzothiazol-2-yl)carbamoyl]benzamide] |  | Emax [2, 3]: 31.8%; EC50 [2]: 252 nM |
| CS(=O)(=O)c1ccc2nc(NC(=O)NC(=O)c3ccccc3-c3ccc(F)cc3)sc2c1 [Example 126, 2-(4-Fluorophenyl)-N-[(6-methylsulfonylbenzothiazol-2-yl)carbamoyl]benzamide] |  | Emax [2, 3]: 38.4%; EC50 [2]: 1030 nM |
| C=CS(=O)(=O)c1ccc2nc(NC(=O)NC(=O)c3ccccc3Cl)sc2c1 [Example 129, 2-Chloro-N-[(6-ethenylsulfonylbenzothiazol-2-yl)carbamoyl]benzamide] | 219 nM |  |
| CCS(=O)(=O)c1ccccc1C(=O)NC(=O)Nc1nc2ccc(S(C)(=O)=O)cc2s1 [Example 135, 2-Ethyl sulfonyl-N-[(6-methylsulfonylbenzothiazol-2-yl)carbamoyl]benzamide] |  | h IP1 ag % [2, 3]: 18.23% |
| O=C(NC(=O)c1ccccc1Cl)Nc1nc2ccc(S(=O)(=O)C3CCCN(CC4CC4)C3)cc2s1 (stereo not drawn) [Example 143, 2-Chloro-N-[[6-[[1-(cyclopropylmethyl)-3-piperidyl]sulfonyl]benzothiazol-2-yl]carbamoyl]benzamide] | 484 nM |  |
| O=C(NC(=O)c1ccccc1Cl)Nc1nc2ccc(S(=O)(=O)C3CCN(CC4CC4)C3)cc2s1 (stereo not drawn) [Example 144, 2-Chloro-N-[[6-[1-(cyclopropylmethyl)pyrrolidin-3-yl]sulfonylbenzothiazol-2-yl]carbamoyl]benzamide] | 201 nM |  |
| CC(C)NCCCS(=O)(=O)c1ccc2nc(NC(=O)NC(=O)c3ccccc3Cl)sc2c1 [Example 145, 2-Chloro-N-[[6-[3-(propan-2-ylamino)propylsulfonyl]benzothiazol-2-yl]carbamoyl]benzamide] | 59.8 nM |  |
